Results as given in article PMC7822176, “Pursuing the Complexity of Alzheimer’s Disease: Discovery of Fluoren-9-Amines as Selective Butyrylcholinesterase Inhibitors and N-Methyl-D-Aspartate Receptor Antagonists” (Biomolecules, 2020).
Structures can show the parent of a compound that is named as a salt. Where two headings read alike, the source gives them in different places.

Tests used:
[1] = MTT cell viability assay, CHO-K1; assay type: cell-based; settings: Chinese hamster, CHO-K1 cells, 24 h exposure, mean of three independent measurements, read-out: IC50 ± SEM CHO-K1 cell viability
Description: (§1) Standard MTT assay (3-(4,5-dimethylthiazol-2-yl)-2,5-diphenyltetrazolium bromide; Sigma Aldrich, Prague, Czech Republic) was used according to the manufacturer’s protocols on the CHO-K1 (Chinese hamster ovary, ECACC, Salisbury, UK) and hCMEC/D3 (Sigma Aldrich, St. Louis, MO, USA). The cells were cultured according to recommended conditions and seeded in a density of 8000 cells per well, as described previously. […] CHO-K1 cells were exposed to serially diluted tested compounds for 24 h. Then, the medium was replaced by a fresh medium containing 0.5 mg/mL of MTT, and the cells were allowed to produce formazan for another approximately 3 h under surveillance. Thereafter, the medium with MTT was removed, and crystals of formazan were dissolved in DMSO (100 µL/well; PENTA s.r.o., Prague, Czech Republic). Cell viability was assessed spectrophotometrically by the amount of formazan produced. The absorbance was measured at 570 nm with a 650-nm reference wavelength on Synergy HT (BioTek, Winooski, VT, USA). The IC50 value (half-maximal inhibitory concentration) was calculated from the control-subtracted triplicates using nonlinear regression (four parameters) by GraphPad Prism 7.03 software (GraphPad Software Inc., San Diego, CA, USA) for the CHO-K1 cell line, and for hCMEC/D3 cells, the cell viability was expressed as the % relative to the untreated control. Final IC50 and SEM (standard error of the mean) values were obtained as a mean of three independent measurements.

hBChE = biological target: T1, hBChE (Homo sapiens, UniProt P06276); experiment: biochemical; assay type: biochemical
T1 construct: made in house
T1 sequence (P06276 29-602): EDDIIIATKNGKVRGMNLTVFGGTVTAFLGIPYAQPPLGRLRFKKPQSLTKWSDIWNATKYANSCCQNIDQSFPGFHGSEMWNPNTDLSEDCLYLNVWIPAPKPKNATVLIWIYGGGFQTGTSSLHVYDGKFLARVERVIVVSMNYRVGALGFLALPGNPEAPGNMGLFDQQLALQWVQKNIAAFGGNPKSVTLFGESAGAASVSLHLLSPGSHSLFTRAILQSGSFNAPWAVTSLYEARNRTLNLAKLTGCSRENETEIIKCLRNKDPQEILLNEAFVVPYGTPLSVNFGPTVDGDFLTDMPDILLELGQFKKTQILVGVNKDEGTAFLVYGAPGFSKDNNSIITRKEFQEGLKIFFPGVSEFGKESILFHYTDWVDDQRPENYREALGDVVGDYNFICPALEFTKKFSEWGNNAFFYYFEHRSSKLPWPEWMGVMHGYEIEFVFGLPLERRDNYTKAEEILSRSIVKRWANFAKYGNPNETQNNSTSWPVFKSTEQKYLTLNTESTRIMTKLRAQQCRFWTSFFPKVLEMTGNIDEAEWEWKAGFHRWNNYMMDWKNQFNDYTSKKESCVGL
Description: The human recombinant BChE and AChE were prepared at the Department of Toxicology and Military Pharmacy (Faculty of Military Health Sciences, Hradec Kralove, Czech Republic). 5,5′-dithiobis(2-nitrobenzoic acid) (Ellman’s reagent, DTNB), phosphate buffer (PB, pH 7.4), acetylthiocholine (ATC), and butyrylthiocholine (BTC) were purchased from Sigma-Aldrich, Prague, Czech Republic. For measuring purposes, polystyrene Nunc 96-well microplates with a flat bottom shape (Thermo Fisher Scientific, Waltham, MA, USA) were utilized. All the assays were carried out in 0.1-M KH2PO4/K2HPO4 buffer, pH 7.4. Enzyme solutions were prepared at 2.0 units/mL in 2-mL aliquots. […] Tested compounds were preincubated for 5 min. The reaction was started by the immediate addition of 20 µL of the substrate. […] Each concentration was assayed in triplicate. Software GraphPad Prism 5 (San Diego, CA, USA) was used for the statistical data evaluation.

GluN1/GluN2B receptors = biological target: T2, GluN1/GluN2B receptors (Homo sapiens, UniProt Q05586+Q13224); experiment: cell-based; settings: for inhibition at 10 µM: HEK293, read-out: RI (%) ± SEM GluN1/GluN2B
T2 construct: expressed in transfected cells; host or cells: HEK293
T2 sequence (Q13224 27-1484, other chains not shown): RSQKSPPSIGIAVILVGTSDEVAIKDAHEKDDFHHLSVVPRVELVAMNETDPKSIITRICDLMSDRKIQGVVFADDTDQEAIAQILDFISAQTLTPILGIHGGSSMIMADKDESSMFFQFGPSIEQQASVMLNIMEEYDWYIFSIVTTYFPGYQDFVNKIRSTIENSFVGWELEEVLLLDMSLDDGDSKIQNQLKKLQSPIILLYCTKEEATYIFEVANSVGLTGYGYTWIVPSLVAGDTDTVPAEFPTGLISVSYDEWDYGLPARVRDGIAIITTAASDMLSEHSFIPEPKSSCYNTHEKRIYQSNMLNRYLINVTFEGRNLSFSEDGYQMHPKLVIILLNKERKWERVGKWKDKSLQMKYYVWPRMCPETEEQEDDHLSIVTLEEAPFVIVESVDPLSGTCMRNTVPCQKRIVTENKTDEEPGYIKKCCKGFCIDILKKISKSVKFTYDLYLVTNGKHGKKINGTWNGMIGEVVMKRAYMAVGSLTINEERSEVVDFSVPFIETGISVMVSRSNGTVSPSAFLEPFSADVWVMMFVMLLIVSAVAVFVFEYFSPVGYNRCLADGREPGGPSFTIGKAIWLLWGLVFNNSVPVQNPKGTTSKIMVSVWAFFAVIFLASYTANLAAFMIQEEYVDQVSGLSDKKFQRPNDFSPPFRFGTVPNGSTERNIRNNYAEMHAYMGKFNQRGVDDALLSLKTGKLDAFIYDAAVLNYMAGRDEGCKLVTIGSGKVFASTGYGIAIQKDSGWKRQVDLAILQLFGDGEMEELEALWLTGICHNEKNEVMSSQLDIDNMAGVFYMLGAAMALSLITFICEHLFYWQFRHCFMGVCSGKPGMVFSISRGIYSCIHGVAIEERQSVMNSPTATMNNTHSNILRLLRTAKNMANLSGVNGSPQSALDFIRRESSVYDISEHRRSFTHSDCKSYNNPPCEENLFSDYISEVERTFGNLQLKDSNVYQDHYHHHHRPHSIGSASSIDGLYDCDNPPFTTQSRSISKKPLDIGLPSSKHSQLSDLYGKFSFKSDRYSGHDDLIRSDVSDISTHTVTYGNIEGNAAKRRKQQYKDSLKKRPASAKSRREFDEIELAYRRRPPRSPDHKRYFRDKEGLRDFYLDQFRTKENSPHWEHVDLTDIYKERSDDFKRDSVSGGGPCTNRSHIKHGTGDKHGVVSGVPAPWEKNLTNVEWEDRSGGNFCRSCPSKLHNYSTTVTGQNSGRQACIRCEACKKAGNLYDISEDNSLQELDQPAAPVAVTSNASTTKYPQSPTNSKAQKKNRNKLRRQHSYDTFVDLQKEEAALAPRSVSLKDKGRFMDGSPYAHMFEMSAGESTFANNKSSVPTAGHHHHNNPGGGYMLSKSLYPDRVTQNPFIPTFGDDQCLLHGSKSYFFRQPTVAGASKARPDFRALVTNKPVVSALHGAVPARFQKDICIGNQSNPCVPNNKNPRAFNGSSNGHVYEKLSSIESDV
Description: (§2) The cells grown in a 24-well plate were put in Opti-MEM I media containing a mixture of 0.9 µL of MATra-A Reagent (IBA) and 900 ng of DNA vectors carrying the human versions of the GluN1-1a (GluN1), GluN2A, or GluN2B subunits and green fluorescent protein (GFP; all vectors were added in equal ratio). The cells were placed on a strong magnet plate for 30 min and then trypsinized; resuspended in Opti-MEM I containing 1% FBS, 20-mM MgCl2, and 3-mM kynurenic acid (to inhibit the NMDAR-induced excitotoxicity); and plated on poly-L-lysine-coated glass coverslips. The electrophysiological experiments were executed 24–48 h after transfection.
(§3) Whole-cell patch-clamp recordings were conducted at room temperature on the GFP-positive HEK293 cells using an Axopatch 200B amplifier (Molecular Devices, San Jose, CA, USA); the series resistance compensation was >80% for all cells. […] The WAS02 application system, which can reach the solution exchange time around the recorded cell of 10–20 ms, was used to apply the extracellular solution (ECS).

GluN1/GluN2A receptors = biological target: T3, GluN1/GluN2A receptors (Homo sapiens, UniProt Q05586+Q12879); experiment: cell-based; settings: for inhibition at 10 µM: HEK293, read-out: RI (%) ± SEM GluN1/GluN2A
T3 construct: expressed in transfected cells; host or cells: HEK293
T3 sequence (Q12879 23-1464, other chains not shown): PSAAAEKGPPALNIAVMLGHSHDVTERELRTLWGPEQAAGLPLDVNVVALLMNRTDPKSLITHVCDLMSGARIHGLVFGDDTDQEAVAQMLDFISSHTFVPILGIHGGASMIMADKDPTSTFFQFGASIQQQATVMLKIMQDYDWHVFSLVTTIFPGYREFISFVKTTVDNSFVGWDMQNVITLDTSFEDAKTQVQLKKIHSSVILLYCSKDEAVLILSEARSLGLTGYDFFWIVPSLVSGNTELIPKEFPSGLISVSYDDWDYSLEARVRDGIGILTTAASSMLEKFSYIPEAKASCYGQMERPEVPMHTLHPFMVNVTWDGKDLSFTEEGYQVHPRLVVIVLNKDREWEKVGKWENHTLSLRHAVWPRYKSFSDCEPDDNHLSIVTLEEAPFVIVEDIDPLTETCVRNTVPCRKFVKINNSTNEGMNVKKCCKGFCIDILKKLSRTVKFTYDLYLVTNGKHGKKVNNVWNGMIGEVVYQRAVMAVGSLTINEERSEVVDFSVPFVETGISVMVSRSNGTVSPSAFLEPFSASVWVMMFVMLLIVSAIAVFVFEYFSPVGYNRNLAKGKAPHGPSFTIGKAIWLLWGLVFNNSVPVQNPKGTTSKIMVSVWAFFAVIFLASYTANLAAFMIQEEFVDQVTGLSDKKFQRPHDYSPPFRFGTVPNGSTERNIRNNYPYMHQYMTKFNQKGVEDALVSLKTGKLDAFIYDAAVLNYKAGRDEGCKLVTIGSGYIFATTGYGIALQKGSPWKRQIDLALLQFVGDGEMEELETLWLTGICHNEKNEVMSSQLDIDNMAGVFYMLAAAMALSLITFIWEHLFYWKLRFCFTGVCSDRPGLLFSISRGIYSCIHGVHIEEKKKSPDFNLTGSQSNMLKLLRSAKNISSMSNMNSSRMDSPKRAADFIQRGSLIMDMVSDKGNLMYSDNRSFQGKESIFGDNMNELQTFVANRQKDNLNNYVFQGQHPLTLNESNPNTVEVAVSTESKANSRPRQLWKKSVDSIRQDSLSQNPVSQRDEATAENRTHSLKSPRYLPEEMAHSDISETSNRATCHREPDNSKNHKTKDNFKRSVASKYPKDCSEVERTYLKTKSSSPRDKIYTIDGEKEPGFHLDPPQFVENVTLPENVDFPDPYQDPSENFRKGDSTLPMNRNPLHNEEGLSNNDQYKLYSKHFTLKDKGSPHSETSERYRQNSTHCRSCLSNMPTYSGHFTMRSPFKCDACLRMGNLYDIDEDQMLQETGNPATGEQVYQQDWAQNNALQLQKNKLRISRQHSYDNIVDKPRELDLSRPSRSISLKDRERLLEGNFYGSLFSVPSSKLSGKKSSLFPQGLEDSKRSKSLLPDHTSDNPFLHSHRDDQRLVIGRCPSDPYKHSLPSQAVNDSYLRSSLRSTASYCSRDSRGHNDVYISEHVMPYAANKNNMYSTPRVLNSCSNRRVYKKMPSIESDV
Description: as §2, §3

[2] = MTT cell viability test, hCMEC/D3; assay type: cell-based; settings: human, hCMEC/D3 cells, read-out: % viable cells hCMEC/D3
Description: as §1, with “The IC50 value (half-maximal inhibitory concentration) was calculated from the control-subtracted triplicates using nonlinear regression (four parameters) by GraphPad Prism 7.03 software (GraphPad Software Inc., San Diego, CA, USA) for the CHO-K1 cell line, and for hCMEC/D3 cells, the cell viability was expressed as the % relative to the untreated control.” left out

in vitro = settings: human
Description: (§4) The D3 assay evaluates the ability of compounds to diffuse from the donor compartment through the D3/hCMEC cell membrane into the acceptor compartment. The D3 cells were seeded on a PET membrane (area 1.12 cm^2) with 3-µm pores of the 12-well plates with 12-mm inserts. […] The donor solution (750 µL) was added to the donor compartment (insert), and the same volume of Opti-MEM was added into the acceptor. The concentration of the drug in both compartments was measured by UV-VIS spectrophotometry in 5, 15, 30, and 60 min of incubation in triplicates. The apparent permeability coefficient (Papp) was calculated from the concentration ratios. Tightness of the D3 monolayer was conducted by the fluorescein isothiocyanate (FITC) test after each experiment. […] (1) Papp= dC/dt × Vr/A × C0 • A: area of the well/cell monolayer, • dC/dt: amount in the receiver compartment in given time, • Vr: volume of the receiver compartment, and • C0: the initial concentration of tested compounds.

hCMEC/D3 cell monolayer = experiment: in vitro; settings: for potential of BBB permeation (in words): Papp correlated to reference drugs
Description: as §4

[3] = mean of at least three experiments, read-out: IC50 ± SEM hBChE
[4] = final prediction from Papp correlated to reference drugs

Row | Structure (SMILES) | IC50 at 24 h [1] | IC50 (hBChE; [3]) | inhibition at 10 µM (GluN1/GluN2B receptors) | inhibition at 10 µM (GluN1/GluN2A receptors) | Papp (in vitro) | also measured
1 | c1ccc2c(c1)-c1ccccc1C2N1CCCCC1 [Compound 3f, 1-(9H-fluoren-9-yl)piperidine hydrochloride] | 872 ± 10 µM | 2.13 ± 0.06 µM | 19.4 ± 2.65% | 33 ± 1.96% | – | –
2 | CC(C)NC1c2ccccc2-c2ccccc21 [Compound 3a, N-Propan-2-yl-9H-fluoren-9-amine hydrochloride] | 387 ± 32 µM | – | 25 ± 1.82% | 33.3 ± 1.66% | – | –
3 | Cl.c1ccc2c(c1)-c1ccccc1C2NC1CCC1 [Compound 3e, N-Cyclobutyl-9H-fluoren-9-amine hydrochloride] | 192 ± 3 µM | 2.03 ± 0.08 µM | 44.8 ± 3.43% | 52.3 ± 4.18% | 13.5 ± 1.54 ×10⁻⁶ cm/s | h 40 mV GluN1/GluN2B (Hill coefficient) (GluN1/GluN2B receptors; 40 mV): 1.10 ± 0.08; IC50 (GluN1/GluN2B receptors; 40 mV, read-out: IC50 40 mV GluN1/GluN2B): 156 ± 14.9 µM; h −60 mV GluN1/GluN2B (Hill coefficient) (GluN1/GluN2B receptors; −60 mV): 1.17 ± 0.05; IC50 (GluN1/GluN2B receptors; −60 mV, read-out: IC50 −60 mV GluN1/GluN2B): 15.3 ± 2.38 µM; h 40 mV GluN1/GluN2A (Hill coefficient) (GluN1/GluN2A receptors; 40 mV): 1.28 ± 0.12; IC50 (GluN1/GluN2A receptors; 40 mV, read-out: IC50 40 mV GluN1/GluN2A): 82.6 ± 14.2 µM; h −60 mV GluN1/GluN2A (Hill coefficient) (GluN1/GluN2A receptors; −60 mV): 1.07 ± 0.05; IC50 (GluN1/GluN2A receptors; −60 mV, read-out: IC50 −60 mV GluN1/GluN2A): 8.85 ± 1.21 µM; viability at 50 µM [2]: 92.8%; viability at 100 µM [2]: 92.3%; potential of BBB permeation (in words) (hCMEC/D3 cell monolayer): low potential to passively pass the BBB; CNS (+/−) (hCMEC/D3 cell monolayer; [4]): CNS −
4 | c1ccc2c(c1)-c1ccccc1C2N1CCOCC1 [Compound 3l, 4-(9H-fluorene-9-yl)morpholine hydrochloride] | > 800 µM | 54.7 ± 1.9 µM | 11.6 ± 0.52% | 14.9 ± 1.76% | – | –
5 | c1ccc2c(c1)-c1ccccc1C2N1CCCC1 [Compound 3o, 1-(9H-fluoren-9-yl)pyrrolidine hydrochloride] | 413 ± 15 µM | 1.8 ± 0.06 µM | 32.4 ± 2.99% | 27.8 ± 1.74% | – | –
6 | CC12CC3CC(C)(C1)CC(N)(C3)C2 [Memantine, memantine, reference compound] | – | – | – | – | – | h 40 mV GluN1/GluN2B (Hill coefficient) (GluN1/GluN2B receptors): 0.84 ± 0.04; h −60 mV GluN1/GluN2B (Hill coefficient) (GluN1/GluN2B receptors): 1.04 ± 0.03; h 40 mV GluN1/GluN2A (Hill coefficient) (GluN1/GluN2A receptors): 1.16 ± 0.05; h −60 mV GluN1/GluN2A (Hill coefficient) (GluN1/GluN2A receptors): 1.04 ± 0.06
7 | CC(C)NCC(O)COc1cccc2ccccc12 (centres unmarked) [Propranolol, reference compound] | – | – | – | – | 23.1 ± 2.06 ×10⁻⁶ cm/s | CNS (+/−) (hCMEC/D3 cell monolayer; [4]): CNS +
8 | c1ccc2c(c1)-c1ccccc1C2NC1CC1 [Compound 3d, N-Cyclopropyl-9H-fluoren-9-amine hydrochloride] | 353 ± 32 µM | 6.42 ± 0.22 µM | 14.3 ± 0.35% | 26.6 ± 0.85% | – | –
9 | COCCNC1c2ccccc2-c2ccccc21 [Compound 3g, N-(2-methoxyethyl)-9H-fluoren-9-amine hydrochloride] | 738 ± 1 µM | 2.56 ± 0.11 µM | 6.76 ± 1% | 18.7 ± 1.98% | – | –
10 | CCN(C)C(=O)Oc1cccc([C@H](C)N(C)C)c1 [Rivastigmine, reference compound] | – | – | – | – | 28.6 ± 4.64 ×10⁻⁶ cm/s | CNS (+/−) (hCMEC/D3 cell monolayer): CNS +
11 | CNC1c2ccccc2-c2ccccc21 [Compound 3b, N-Methyl-9H-fluoren-9-amine hydrochloride] | 427 ± 12 µM | 8.91 ± 0.31 µM | 18 ± 0.78% | 36.2 ± 2.16% | – | –
12 | CCN(CC)C1c2ccccc2-c2ccccc21 [Compound 3i, N,N-Diethyl-9H-fluoren-9-amine hydrochloride] | 266 ± 3 µM | 5.38 ± 0.11 µM | 20.1 ± 2.82% | 25.7 ± 1.92% | – | –
13 | CCN1CCN(C2c3ccccc3-c3ccccc32)CC1 [Compound 3k, 1-(9H-fluorene-9-yl)-4-ethylpiperazine dihydrochloride] | 239 ± 35 µM | 12.8 ± 0.3 µM | 19.1 ± 1.48% | 32.1 ± 1.01% | – | –
14 | Cc1cc(=O)n(-c2ccccc2)n1C [Antipyrine, reference compound] | – | – | – | – | 17.2 ± 1.82 ×10⁻⁶ cm/s | CNS (+/−) (hCMEC/D3 cell monolayer; [4]): CNS +
15 | O/N=C/c1cc[n+](COC[n+]2ccc(/C=N/O)cc2)cc1 [Obidoxime, reference compound] | – | – | – | – | 14.3 ± 0.52 ×10⁻⁶ cm/s | CNS (+/−) (hCMEC/D3 cell monolayer; [4]): CNS −
16 | CN1CCN(C2c3ccccc3-c3ccccc32)CC1 [Compound 3j, 1-(9H-fluorene-9-yl)-4-methylpiperazine dihydrochloride] | 259 ± 12 µM | – | 21.9 ± 2.1% | 29.1 ± 2.85% | – | IC50 (hBChE): 23.5 ± 0.8 µM
17 | CCNC1c2ccccc2-c2ccccc21 [Compound 3h, N-Ethyl-9H-fluoren-9-amine hydrochloride] | 417 ± 16 µM | 6.58 ± 0.19 µM | 17.5 ± 2.46% | 26.9 ± 2.14% | – | –
18 | CC(C)CNC1c2ccccc2-c2ccccc21.Cl [Compound 3n, N-(2-methylpropyl)-9H-fluoren-9-amine hydrochloride] | 236 ± 24 µM | – | 49.7 ± 1.72% | 37.9 ± 2.43% | 14.6 ± 1.88 ×10⁻⁶ cm/s | viability at 50 µM [2]: 98.2%; viability at 100 µM [2]: 92.7%; potential of BBB permeation (in words) (hCMEC/D3 cell monolayer): low potential to passively pass the BBB; CNS (+/−) (hCMEC/D3 cell monolayer; [4]): CNS −
